Assay results taken from patent publication US6380244B2, “Nutritional and therapeutic uses of 3-hydroxyalkanoate oligomers” (Metabolix, Inc., priority 1998, dated 2002).

Key:
[1] = Single oral bolus of triolide in a fasted dog, blood ketone bodies and glucose (Example 2); assay type: in vivo, mongrel dog
Procedure: A mongrel dog (21 kg) was fasted overnight and given an oral bolus of triolide (R,R,R)-4,8,12-trimethyl-1,5,9-trioxadodeca-2,6,10-trione, 10 g) in gelatin. This amount of triolide is equivalent to 5% of the daily caloric requirement. Blood was sampled at 0, 15, 30, 45, and 60 minutes and every half hour thereafter for a total of six hours.
The blood samples were analyzed for glucose via enzymatic assay, and for acetoacetate and 3-hydroxybutyrate via GC-mass spectrometry (GC-MS) assay. As shown by FIG. 1, within 90 minutes, the blood concentrations of 3-hydroxybutyrate and acetoacetate reached 0.3 and 0.05 mM, and the total ketone bodies in the blood were 0.36 mM. After the fourth hour, the total ketone body concentration remained elevated at 0.24 mM. Glucose concentration in the blood dropped from 6.5 mM to 5 mM during the experiment.

[2] = Repeated feeding of meat plus triolide to a fasted dog, blood ketone bodies, glucose, tolerability (Example 3); assay type: in vivo, mongrel dog
Procedure: A mongrel dog (25.5 kg) was fasted overnight and fed a mixture of meat (111 g) and triolide ((R,R,R)-4,8,12-trimethyl-1,5,9-trioxadodeca-2,6,10-trione, 23.5 g). This amount of triolide is equivalent to 10% of the daily caloric requirement. Identical amounts of meat and triolide were given at 0, 120, 360 and 540 minutes. Blood was sampled at regular intervals for 12 hours.
The blood samples were analyzed for acetoacetate and 3-hydroxybutyrate. Within 30 minutes, the concentrations of 3-hydroxybutyrate and acetoacetate reached 0.85 and 0.15 mM, respectively. The total ketone bodies in the blood were 1.0 mM. After the third feeding of triolide, total ketone body concentration remained elevated and steady at about 0.6 mM. Glucose concentration in the blood remained within the normal range of 3.1 to 5.9 mM. […] By the next morning, the ketone body concentration in the blood had returned to the normal value of 0.02 mM.

[3] = four feedings of 23.5 g triolide, throughout the experiment
[4] = meat + triolide 23.5 g, within 30 minutes

With C[C@@H]1CC(=O)O[C@H](C)CC(=O)O[C@H](C)CC(=O)O1 [triolide, (R,R,R)-4,8,12-Trimethyl-1,5,9-Trioxadodeca-2,6,10-Trione] the “blood concentration of 3-hydroxybutyrate” value ([1]; oral bolus 10 g triolide in gelatin (5% of daily caloric requirement), within 90 minutes, GC-MS) was 300 µM, the “total ketone bodies in the blood” value ([1]; oral bolus 10 g triolide in gelatin, within 90 minutes) was 0.36 mM and the “blood concentration of acetoacetate” value ([1]; oral bolus 10 g triolide in gelatin, within 90 minutes, GC-MS) was 50 µM. The “total ketone body concentration” value ([1]; oral bolus 10 g triolide, after the fourth hour, remained elevated) was 0.24 mM, the “total ketone body concentration” value ([2]; after the third feeding of triolide, elevated and steady) was “about 0.6 mM” and the “ketone body concentration in the blood” value ([2]; by the next morning, returned to the normal value) was 0.02 mM. For the same compound, the “other clinical chemistry profiles” value [2, 3] was “remained normal”, the “signs of distress, unusual behavior, abnormal bodily functions (diarrhea, nausea, vomiting, frequent urination)” value [2, 3] was “no signs of distress” and the “blood concentration of 3-hydroxybutyrate” value ([2]; meat 111 g + triolide 23.5 g (10% of daily caloric requirement) at 0, 120, 360, 540 min, within 30 minutes) was 850 µM. For the same compound, the “blood concentration of acetoacetate” value [2, 4] was 150 µM and the “total ketone bodies in the blood” value [2, 4] was 1.0 mM.
